Among the data in ChEMBL document CHEMBL1123147, “The intercalation of 6-chloro-substituted-9-[[3-(dimethylamino)propyl]amino]acridines with DNA” (J Med Chem, 1985) are K app values, retold here.

The test concerns Nucleic Acid. The test is described as follows: Binding constant were determined from viscometric titrations with closed circular superhelical DNA.

Consider `CN(C)CCCNc1c2ccc(Cl)cc2nc2ccc(Cl)cc12`, for which the K app was found to be 160000.
In the case of `CSc1ccc2nc3cc(Cl)ccc3c(NCCCN(C)C)c2c1`, the K app was found to be 200000.
Then `Cc1ccc2nc3cc(Cl)ccc3c(NCCCN(C)C)c2c1`, with 290000.
As for `CN(C)CCCNc1c2ccc(Cl)cc2nc2ccc(F)cc12`, the figure is 160000.
As for `COc1ccc2nc3cc(Cl)ccc3c(NCCCN(C)C)c2c1`, the figure is 210000.
Take `CN(C)CCCNc1c2ccccc2nc2cc(Cl)ccc12`: the K app worked out at 130000.
